Measured values taken from patent US11498899B2, “Nitrone herbicides” (FMC Corporation, priority 2016, dated 2022).

Legend:
[1] = tested on: pigweed (Amaranthus retroflexus); assay: Test A preemergence, visual injury rating 0-100; assay type: in vivo
[2] = tested on: ryegrass, Italian (Italian ryegrass, Lolium multiflorum); assay: Test A preemergence, visual injury rating 0-100; assay type: in vivo
[3] = tested on: kochia (Kochia scoparia); assay: Test A preemergence, visual injury rating 0-100; assay type: in vivo
[4] = tested on: ragweed (common ragweed, Ambrosia elatior); assay: Test A preemergence, visual injury rating 0-100; assay type: in vivo
[5] = tested on: foxtail, giant (giant foxtail, Setaria faberii); assay: Test A preemergence, visual injury rating 0-100; assay type: in vivo
[6] = tested on: pigweed (Amaranthus retroflexus); assay: Test A postemergence, visual injury rating 0-100; assay type: in vivo; conditions: 0 to 100 scale
[7] = tested on: blackgrass (Alopecurus myosuroides); assay: Test A postemergence, visual injury rating 0-100; assay type: in vivo; conditions: 0 to 100 scale
[8] = tested on: corn (Zea mays); assay: Test A postemergence, visual injury rating 0-100; assay type: in vivo; conditions: 0 to 100 scale
[9] = tested on: wheat (Triticum aestivum); assay: Test A postemergence, visual injury rating 0-100; assay type: in vivo; conditions: 0 to 100 scale
[10] = tested on: ryegrass, Italian (Italian ryegrass, Lolium multiflorum); assay: Test A postemergence, visual injury rating 0-100; assay type: in vivo; conditions: 0 to 100 scale
[11] = tested on: kochia (Kochia scoparia); assay: Test A postemergence, visual injury rating 0-100; assay type: in vivo; conditions: 0 to 100 scale
[12] = tested on: barnyardgrass (Echinochloa crus-galli); assay: Test A postemergence, visual injury rating 0-100; assay type: in vivo; conditions: 0 to 100 scale
[13] = tested on: ragweed (common ragweed, Ambrosia elatior); assay: Test A postemergence, visual injury rating 0-100; assay type: in vivo; conditions: 0 to 100 scale
[14] = tested on: foxtail, giant (giant foxtail, Setaria faberii); assay: Test A postemergence, visual injury rating 0-100; assay type: in vivo; conditions: 0 to 100 scale
[15] = tested on: galium (catchweed bedstraw, Galium aparine); assay: Test A postemergence, visual injury rating 0-100; assay type: in vivo; conditions: 0 to 100 scale
[16] = tested on: barnyardgrass (Echinochloa crus-galli); assay: Test B flooded paddy test, visual rating 0-100; conditions: Flood, 250 g ai/ha, applied to paddy water, rated after 13 to 15 days
[17] = tested on: barnyardgrass (Echinochloa crus-galli); assay: Test A preemergence, visual injury rating 0-100 (0 no effect, 100 complete control); assay type: in vivo
[18] = tested on: ducksalad (Heteranthera limosa); assay: Test B flooded paddy test, visual rating 0-100; conditions: Flood, 250 g ai/ha, applied to paddy water, rated after 13 to 15 days
[19] = tested on: rice (Oryza sativa); assay: Test B flooded paddy test, visual rating 0-100 (0 no effect, 100 complete control); conditions: Flood, 250 g ai/ha, applied to paddy water, rated after 13 to 15 days
[20] = 31 g ai/ha, 0 to 100 scale (0 no effect, 100 complete control), approx. 10 days

Row | Compound | Pigweed plant response rating (0 to 100 scale) ([1]; 125 g ai/ha) | Ryegrass, Italian plant response rating (0 to 100 scale) ([2]; 125 g ai/ha) | Kochia plant response rating (0 to 100 scale) ([3]; 125 g ai/ha) | Ragweed plant response rating (0 to 100 scale) ([4]; 125 g ai/ha) | Foxtail, Giant plant response rating (0 to 100 scale) ([5]; 125 g ai/ha) | Pigweed plant response rating ([6]; 125 g ai/ha) | Blackgrass plant response rating ([7]; 125 g ai/ha) | Corn plant response rating ([8]; 125 g ai/ha) | Wheat plant response rating ([9]; 125 g ai/ha) | Ryegrass, Italian plant response rating ([10]; 125 g ai/ha) | Kochia plant response rating ([11]; 125 g ai/ha) | Barnyardgrass plant response rating ([12]; 125 g ai/ha) | Ragweed plant response rating ([13]; 125 g ai/ha) | Foxtail, Giant plant response rating ([14]; 125 g ai/ha) | Galium plant response rating ([15]; 125 g ai/ha) | Barnyardgrass plant response rating (0 to 100 scale) [16] | Barnyardgrass plant response rating (0 to 100 scale) ([17]; 125 g ai/ha) | Ducksalad plant response rating (0 to 100 scale) [18] | Rice plant response rating (0 to 100 scale) [19] | other results
1 | CC1=[N+]([O-])[C@@H](C(=O)Nc2cccc(F)c2F)[C@H](c2cccc(Oc3ncc(F)cc3F)c2)C1 [Compound 70] | 0 | 0 | 0 | 0 | 90 | 20 | 30 | 0 | 0 | 0 | 0 | 70 | 0 | 0 | 30 | 0 | 80 | 0 | 0 | Pigweed plant response rating [1, 20]: 0; Ryegrass, Italian plant response rating [2, 20]: 0; Kochia plant response rating [3, 20]: 0; Ragweed plant response rating [4, 20]: 0; Foxtail, Giant plant response rating [5, 20]: 20; Pigweed plant response rating ([6]; 31 g ai/ha): 0; Blackgrass plant response rating ([7]; 31 g ai/ha): 0; Corn plant response rating ([8]; 31 g ai/ha): 0; Wheat plant response rating ([9]; 31 g ai/ha): 0; Ryegrass, Italian plant response rating ([10]; 31 g ai/ha): 0; Kochia plant response rating ([11]; 31 g ai/ha): 0; Barnyardgrass plant response rating ([12]; 31 g ai/ha): 20; Ragweed plant response rating ([13]; 31 g ai/ha): 0; Foxtail, Giant plant response rating ([14]; 31 g ai/ha): 0; Galium plant response rating ([15]; 31 g ai/ha): 0; Barnyardgrass plant response rating [17, 20]: 40
2 | CC1=[N+]([O-])[C@@H](C(=O)Nc2cccc(F)c2F)[C@H](c2cccc(Oc3ccc(F)cn3)c2)C1 [Compound 84] | 0 | 0 | 0 | 0 | 30 | 10 | 90 | 0 | 0 | 20 | 0 | 40 | 0 | 50 | 40 | 0 | 10 | 0 | 0 | Pigweed plant response rating (0 to 100 scale) ([1]; 500 g ai/ha): 30; Ryegrass, Italian plant response rating (0 to 100 scale) ([2]; 500 g ai/ha): 80; Kochia plant response rating (0 to 100 scale) ([3]; 500 g ai/ha): 50; Ragweed plant response rating (0 to 100 scale) ([4]; 500 g ai/ha): 20; Foxtail, Giant plant response rating (0 to 100 scale) ([5]; 500 g ai/ha): 90; Pigweed plant response rating ([6]; 500 g ai/ha): 40; Blackgrass plant response rating ([7]; 500 g ai/ha): 90; Corn plant response rating ([8]; 500 g ai/ha): 40; Wheat plant response rating ([9]; 500 g ai/ha): 50; Ryegrass, Italian plant response rating ([10]; 500 g ai/ha): 90; Kochia plant response rating ([11]; 500 g ai/ha): 20; Barnyardgrass plant response rating ([12]; 500 g ai/ha): 90; Ragweed plant response rating ([13]; 500 g ai/ha): 30; Foxtail, Giant plant response rating ([14]; 500 g ai/ha): 70; Galium plant response rating ([15]; 500 g ai/ha): 40; Barnyardgrass plant response rating (0 to 100 scale) ([17]; 500 g ai/ha): 90
